Reference: US20210094922A1, “Dyes for Analysis of Soluble Protein Aggregates or Misfolded Protein Oligomers” (The Penn State Research Foundation, priority 2018, published 2021)
Several values for one entry are separate records, joined by “and”; a condition that tells them apart may be missing. Equal entries are not always repeated.

How the values were obtained:
[1] = Photophysical parameters of fluorophores in glycerol; format: physicochemical; details: for B (brightness): calculated using B = Φϵ; for fluorescence in solvents with increasing concentrations of glycerol: glycerol:H2O mixtures; for Φ (quantum yield) / λem / λex / decrease in brightness relative to 3 / diminished quantum yield relative to 3: in glycerol; for λabs: maximum absorbance measured in glycerol; for ϵ (extinction coefficient): measured in glycerol
Protocol: FP analogues (20 μM) were prepared in glycerol:H2O mixture with increasing glycerol concentrations. In addition, fluorescence intensity in 1,4-dioxane was measured to evaluate their response to polarity. Fluorescence measurement was carried out using a Tecan infinite M1000Pro fluorescence microplate reader at excitation and emission wavelengths as indicated. All readings were normalized against the fluorescence intensity in 100% glycerol as 1. Error bars: standard error (n=3).
FP analogues (20 μM) were prepared in glycerol. Spectra were collected with emission wavelength of 420 nm for 1, 525 nm for 2, 620 nm for 3, 3a and 3b. All measurements were carried out using a Tecan infinite M1000Pro fluorescence microplate reader.
FP analogues (20 μM) were prepared in glycerol. Spectra were collected with excitation wavelength of 370 nm for 1, 455 nm for 2, 530 nm for 3 and 3b, 485 nm for 3a. All measurements were carried out using a Tecan infinite M1000Pro fluorescence microplate reader.
FP analogues (10 μM) were prepared in glycerol. Spectra were collected with 10 mm quartz cuvette. All measurements were carried out using Agilent 300 UV-Vis spectrophotometer.
However, the quantum yield (QY, Φ=0.001 for 1 and Φ=0.027 for 2 in glycerol, Table 2) was much lower than that of a GFP (Φ=0.79).

SOD1-A4V-Halo = SOD1-A4V-Halo (Homo sapiens, UniProt P00441, A5V); assay: In vitro heat-induced aggregation of SOD1-A4V-Halo conjugates; format: biochemical
Description: (B-C) Excitation and emission spectra of 4 (with misfolded oligomers of SOD1-A4V-Halo) and 5 (with insoluble aggregates of SOD1-A4V-Halo).
The inventors installed Halo-tag reactive warhead to 2, resulting in 5.

[2] = Photostability of 3, absorbance under laser irradiation; format: physicochemical; details: 5 mW laser beam of 543 nm; glycerol and protein aggregates
Description: The inventors also determined photostability of 3 by measuring its absorbance spectra in glycerol and protein aggregates. […] These photochemical properties make 3 suited for fluorescence microscopy.

[3] = Fluorescence of crystals of 3; format: physicochemical; details: crystal
Description: (a) The crystal of 3 is fluorescent. The crystals were looped out and transferred to a 35 mm glass bottom dish. Images were taken using an inverted Biorad ZOE fluorescent cell imager. […] Reason of the dark image in the bright field is because light of an inverted microscope could not pass through the thick crystal. (b) Crystal structure and packing diagram of 3, with thermal ellipsoids drawn at 50% probability level.
The fluorescence may arise from the tight crystal packing that inhibits TICT of 3 (FIG. 10b).

α-synuclein = molecular target: T1, α-synuclein (Homo sapiens, UniProt P37840); assay: α-synuclein aggregation assay, fluorogenic detection; format: biochemical; details: for stoichiometry of fluorescence intensity with α-syn concentration: 70 vs 140 μM α-syn
T1 construct: made in house; host or cells: E. coli (pET29b vector)
Protocol: Aggregation of α-synuclein was carried out using method described in the Supporting Information. Subsequently, half of reaction mixture was loaded on a 96-well plate to measure fluorescence intensity of 3 (a) or ThT (b) for the reaction mixture (T). The other half was centrifuged at 21,000 g for 30 minutes at 4° C. The supernatant fraction (S) and pellet fraction (P, after resuspension with a volume that was equal to that of the S fraction) were loaded on a 96-well plate to measure fluorescence intensity. 10 μM 3 or ThT was also incubated in buffer as a control. Parameters for fluorescence measurement: 3 (Ex=530 nm/Em=600 nm) and ThT (Ex=440 nm/Em=480 nm). Error bars: standard error (n=3).
(§1) HEK293T cultures were seeded at 25% confluency 24 h prior to transfection in 12-well plate for time dependent fluorescence plate reader analysis or 35 mm glass bottom culture dishes (Poly-d-lysine coated, MatTek Corporation). Cells were grown in DMEM medium supplemented with 10% FBS and penicillin-streptomycin antibiotics until they reached 50-60% confluency. Transfection was performed using X-tremeGene™ 9 DNA transfection reagent (Roche). After 24 h of protein expression and co-translational labeling, medium was replaced with fresh DMEM to diffuse out unbound ligands. After 30 min, media was replaced by fresh DMEM medium containing DMSO vehicle or NaAsO2 (50 μM). Cells were incubated for 18 h, 37° C. in a CO2 incubator. Nuclear stain Hoechst 33342 ([…]) was added to the medium 30 min prior to confocal imaging. Aggregation Assays. α-synuclein: Aggregation solution contained 70 or 140 μM α-synuclein in 20 mM HEPES (pH 7.5) and 100 mM NaCl. 10 μM of 3 or ThT was added to the solution at the beginning of reaction. Previous studies have shown that the kinetics of α-synuclein aggregation is unaffected by the addition of ThT. A volume of 150 μL of the mixture was pipetted into a well of clear-bottom 96-well plate, which was subsequently sealed with Mylar plate sealers. The plate was loaded on a Heidolph vibrating platform shaker and shake at 1,350 rpm at 37° C. At indicated time points, fluorescence reading was obtained using a Tecan M1000Pro fluorescence plate reader. Fluorescence intensity was recorded at Ex=530 nm/Em=600 nm for 3 and Ex=450 nm/Em=480 nm for ThT. Each sample was run in triplicate or quadruplicate. SOD1(V31A): Aggregation was carried out with DPBS buffer containing indicated concentrations of EDTA that is used to chelate the structural metal of SOD1. Aggregation solution contained 42 μM SOD1(V31A) or SOD1(V31A)-Halo and […] of 3 was added to the solution at the beginning of reaction. Reaction was carried out quiescently at indicated temperatures. Fluorescence of 3 was measured at Ex=530 nm/Em=600 nm.

SOD1(V31A) = molecular target: T2, SOD1(V31A) (Homo sapiens, UniProt P00441, V32A); assay: Heat-induced SOD1(V31A) aggregation assay, fluorogenic detection; format: biochemical
T2 construct: linker (TEV site)-Halo-His6 (C, cleaved yes); made in house; host or cells: E. coli BL21 DE3* (pET29b; pBAD σ32-I54N co-expressed)
Protocol: (a) SOD1(V31A) aggregation (42 μM) was induced at 59° C. for 30 min in buffer (50 mM Tris-HCl, pH 7.5, 100 mM NaCl, 83 mM EDTA), in the presence of 3 (21 μM). Reaction mixture was illuminated by UV trans-illuminator before and after centrifugation at 21,000 g for 10 min at 4° C. (b) Fluorescence intensity of SOD1(V31A) aggregates (42 μM) in the presence of varying concentrations of 3. 100 μM of 3 in buffer was used as a control. Parameters for fluorescence measurement: 3 (Ex=530 nm/Em=600 nm). Error bars: standard error (n=3).
as §1

HEK293T cells = assay: Stress-induced proteome aggregation in HEK293T cells with MG132 (AggGlow); format: cell-based, human; details: 5 μM MG132, 2.5 μM 3
Description: (§2) Untreated cells remain dark as shown in right panel.
(§3) 3 is used to monitor stress-induced proteome aggregation in HEK293T (human embryonic kidney) cells with a proteasome inhibitor MG132. […] The diffusive fluorescence structure indicates misfolded oligomers and the granular fluorescence structure indicates insoluble aggregates. Similar to this application, 3 was used to monitor stress-induced proteome aggregation in HeLa cells with a heat-shock protein 90 (Hsp90) inhibitor 17-AAG.

HeLa cells = assay: Stress-induced proteome aggregation in HeLa cells with 17-AAG (AggGlow); format: cell-based; details: 1 μM 17-AAG, 2.5 μM 3
Description: as §2, §3

T2 sequence (P00441 whole entry V32A): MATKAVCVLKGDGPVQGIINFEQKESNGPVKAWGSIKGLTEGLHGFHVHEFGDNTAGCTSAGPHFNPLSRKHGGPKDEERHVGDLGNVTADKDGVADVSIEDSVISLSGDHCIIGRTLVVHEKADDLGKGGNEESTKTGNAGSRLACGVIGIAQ
Sequence of SOD1-A4V-Halo (P00441 with tags, fused parts or gaps A5V): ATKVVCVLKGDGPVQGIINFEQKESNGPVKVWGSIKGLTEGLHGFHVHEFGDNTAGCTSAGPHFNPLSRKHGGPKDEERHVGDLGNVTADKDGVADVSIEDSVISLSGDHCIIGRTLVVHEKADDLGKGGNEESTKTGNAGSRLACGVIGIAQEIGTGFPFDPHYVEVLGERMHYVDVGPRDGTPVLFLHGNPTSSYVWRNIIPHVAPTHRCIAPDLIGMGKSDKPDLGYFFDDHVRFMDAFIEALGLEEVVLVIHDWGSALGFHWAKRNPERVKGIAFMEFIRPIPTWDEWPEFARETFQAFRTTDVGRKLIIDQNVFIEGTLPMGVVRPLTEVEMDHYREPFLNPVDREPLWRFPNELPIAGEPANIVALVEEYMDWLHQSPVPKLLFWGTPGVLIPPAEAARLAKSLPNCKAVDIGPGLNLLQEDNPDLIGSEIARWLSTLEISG

| Compound | B (brightness) [1] | fluorescence in solvents with increasing concentrations of glycerol [1] | Φ (quantum yield) [1] | λem [1] [nm] | λex [1] [nm] | λabs [1] [nm] | ϵ (extinction coefficient) [1] | stoichiometry of fluorescence intensity with α-syn concentration (α-synuclein) | decrease in brightness relative to 3 [1] [fold] | diminished quantum yield relative to 3 [1] | detection of soluble oligomers of α-syn (α-synuclein) | further results |
| --- | --- | --- | --- | --- | --- | --- | --- | --- | --- | --- | --- | --- |
| CC1=N/C(=C\c2ccc(O)cc2)C(=O)N1CC(=O)OC(C)(C)C [Compound 1, (Z)-tert-butyl 2-(4-(4-(hydroxy)benzylidene)-2-methyl-5-oxo-4,5-dihydro-1H-imidazol-1-yl)acetate] | 20.6 M⁻¹ cm⁻¹ | elevated fluorescence | 0.001 | 429 | 370 | 376 | 20,592 M^−1cm^−1 | – | – | – | – | – |
| CC1=N/C(=C\c2ccc(N(C)C)cc2)C(=O)N1CC(=O)OC(C)(C)C [Compound 2, (Z)-tert-butyl 2-(4-(4-(dimethylamino)benzylidene)-2-methyl-5-oxo-4,5-dihydro-1H-imidazol-1-yl)acetate] | 640 M⁻¹ cm⁻¹ | elevated fluorescence | 0.027 | 521 | 450 | 452 | 23,718 M^−1cm^−1 | – | – | – | – | which POI conformations activate fluorescence (SOD1-A4V-Halo): only activates fluorescence when POI forms insoluble aggregates |
| Cc1ccc2c(c1)sc(-c1ccc(N(C)C)cc1)[n+]2C.[Cl-] [Thioflavin T, thioflavin T, reference compound] | – | – | – | – | – | – | – | such stoichiometry was absent | – | – | fails to detect soluble oligomers | – |

Now from value to compound, other results behind:

| B (brightness) [1] | fluorescence in solvents with increasing concentrations of glycerol [1] | Φ (quantum yield) [1] | λem [1] [nm] | λex [1] [nm] | λabs [1] [nm] | ϵ (extinction coefficient) [1] | stoichiometry of fluorescence intensity with α-syn concentration (α-synuclein) | decrease in brightness relative to 3 [1] [fold] | diminished quantum yield relative to 3 [1] | Compound | detection of soluble oligomers of α-syn (α-synuclein) | further results |
| --- | --- | --- | --- | --- | --- | --- | --- | --- | --- | --- | --- | --- |
| 8,786 M^−1cm^−1 | – | 0.22 and 0.221 | 629 | 530 | 530 | 39,049 M^−1cm^−1 | stoichiometric | – | – | CN(C)c1ccc(/C=C2N=C(/C=C/c3ccc(N(C)C)cc3)N(CC(=O)OC(C)(C)C)C\2=O)cc1 [Compound 3, tert-butyl 2-((Z)-4-(4-(dimethylamino)benzylidene)-2-((E)-4-(dimethylamino)styryl)-5-oxo-4,5-dihydro-1H-imidazol-1-yl)acetate] | detects soluble oligomers via fluorescence increase | drop of absorbance at 530 nm on irradiation [2]: 10%; fluorescence of crystals [3]: exhibited fluorescence; fluorescence intensity with mature α-syn fibers (α-synuclein; 70 μM α-syn): 0.52; fluorescence intensity with mature α-syn fibers (α-synuclein; 140 μM α-syn): 1.0; time at which second phase of fluorescence increase was observed (α-synuclein; fiber growth): 20 h; time at which second phase leveled off (α-synuclein; fiber maturation): 36 h; time at which fluorescence reached a plateau (α-synuclein; first phase): 8 h; time at which fluorescence started to increase (α-synuclein; first phase, soluble oligomers): 4 h; kinetics of fluorescence increase versus protein misfolding (tryptophan fluorescence) (SOD1(V31A)): identical to that of protein misfolding; kinetics of fluorescence increase versus turbidity (SOD1(V31A); 54.5° C.): faster than that of turbidity; fraction in which fluorescence signal is found (SOD1(V31A); after centrifugation): primarily found in the fraction of insoluble protein aggregates; quantum yield after aggregation of SOD1-V31A (SOD1(V31A); incubated at 59° C.): 0.22; quantum yield before aggregation of SOD1-V31A (SOD1(V31A); start value): 0.02; fluorescence in stressed cells (HEK293T cells): obvious fluorescence pattern was developed in the cytosol; fluorescence in stressed cells (HeLa cells): obvious fluorescence pattern was developed in the cytosol |
| 1,386 M^−1cm^−1 | – | 0.1 | 621 | 485 | 500 | 13,863 M^−1cm^−1 | – | ~5 | ~50% | CN(C)c1ccc(/C=C/C2=NC(=C\c3ccccc3)/C(=O)N2CC(=O)OC(C)(C)C)cc1 [Compound 3a, tert-butyl 2-((Z)-4-benzylidene-2-((E)-4-(dimethylamino)styryl)-5-oxo-4,5-dihydro-1H-imidazol-1-yl)acetate] | – | – |
| 2,089 M^−1cm^−1 | – | 0.232 | 630 | 530 | 533 | 9,004 M^−1cm^−1 | – | ~5 | does not affect quantum yield | CN(C)c1ccc(/C=C2N=C(/C=C/c3ccccc3)N(CC(=O)OC(C)(C)C)C\2=O)cc1 [Compound 3b, tert-butyl 2-((Z)-4-(4-(dimethylamino)benzylidene)-5-oxo-2-((E)-styryl)-4,5-dihydro-1H-imidazol-1-yl)acetate] | – | – |
